The values that follow come from patent EP4154876B1, “CBX7 INHIBITOR FOR USE IN THE TREATMENT AND/OR PREVENTION OF A BLOOD VESSEL DISORDER” (Universität Potsdam, priority 2021, dated 2023).

One assay concerns the target T1, CBX7ChD (Homo sapiens, UniProt O95931).
T1 sequence (O95931 11-69 limits assumed): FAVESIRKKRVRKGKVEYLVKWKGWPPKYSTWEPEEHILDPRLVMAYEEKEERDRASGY
The note with it: estimated; determined by NMR titration; CBX7ChD alone; cited from earlier work.

In a further assay the test system is ccm2 mutants. The assay can be described thus: Pharmacological treatment of zebrafish ccm2 mutants (CCM disease model). The note with it: for posterior caudal vein plexus: ccm2 mutants after treatment with inhibitor, Fig. 4A right column; for heart phenotype (strongly enlarged and ballooning heart): ccm2 mutants treated with inhibitor, Fig. 4A left column. The assay is classed as in vivo. On the procedure: In ccm2 mutants the heart is strongly enlarged and ballooning. In ccm2 mutants treated with MS37452 or MS351, this phenotype is suppressed and is reminiscent of wild type. Similarly, the posterior caudal vein plexus in ccm2 mutants is fenestrated after treatment with the inhibitors. Quantifications of these phenotype classes are in B). To elucidate whether a pharmacological suppression of Cbx7a has the same effect on the zebrafish CCM model, specific small compound inhibitors of CBX7 were tested (MS37452 and MS351). Both inhibitors block the binding of CBX7 to histone modifications on genomic DNA and suppress the epigenetic function of this protein within the Polycomb repressive complex (PRC1) (Fig. 3). Both inhibitors suppress the expression of the CCM phenotype in zebrafish disease models (Fig. 4). The effects of both inhibitors are reminiscent of the genetic knockout of cbx7a in ccm2 mutants. Heart phenotypes is shown in Fig. 4A left column while the region of the posterior caudal vein plexus in Fig. 4A right column. In ccm2 mutants the heart is strongly enlarged and ballooning. In ccm2 mutants treated with MS37452 or MS351, this phenotype is suppressed and is reminiscent of wild type. Similarly, the posterior caudal vein plexus in ccm2 mutants is fenestrated after treatment with the inhibitors. Quantifications of these phenotype classes are shown Fig. 4B. The y-axis represents the ratio of the amounts of embryos with suppressed ballooning heart and abnormal caudal vein plexus phenotype to the amounts of embryos with ballooning heart and abnormal caudal vein plexus phenotype.

Assay [1] relates to ChDs from other CBX proteins including CBX1/3/5 (HP1β/γ/α) and CBX2/4/6/8. The note with it: cited from earlier work.
The next assay has as its target T2, chromodomains of CBX7 (Homo sapiens, UniProt O95931).
T2 sequence (O95931 11-69 limits assumed): T1 sequence (O95931 11-69 limits assumed)
The note with it: CBX7 chromodomain; cited from earlier work.

Structures are written as SMILES. Where a SMILES comes first, the peptide text is derived from it. [ ]: non-standard residue; d: D form. The star is where a group is joined. Benzoyl(4-tBu) = CC(C)(C)c1ccc(C(=O)*)cc1; Lys(Et2) = CCN(CC)CCCC[C@H](N)C(=O)O

What is called Kd is the equilibrium constant for the complex coming apart. With `Cc1ccccc1Cn1c(=N)n(CC(O)c2ccc(Cl)c(Cl)c2)c2ccccc21.Cl` (stereo not shown) [MS351], at CBX7ChD, the Kd was around 500 µM. Besides, in the assay with ccm2 mutants, the “posterior caudal vein plexus” value is reported as “fenestrated”; the “heart phenotype (strongly enlarged and ballooning heart)” value was “suppressed”. Also, the “binding to ChDs from other CBX proteins” value in assay [1] is listed as “does not bind”.

Consider `COc1cccc(C(=O)N2CCN(C(=O)COc3cccc(C)c3)CC2)c1OC` [MS37452], for which, in the assay on ccm2 mutants, the “posterior caudal vein plexus” value is “fenestrated”; the “heart phenotype (strongly enlarged and ballooning heart)” value was “suppressed”.

Take `CCN(CC)CCCC[C@H](NC(=O)[C@H](CC(C)C)NC(=O)[C@H](C)NC(=O)[C@H](Cc1ccccc1)NC(=O)c1ccc(C(C)(C)C)cc1)C(=O)N[C@@H](CO)C(=O)OC` [UNC3866] ({Benzoyl(4-tBu)}-FAL[Lys(Et2)]S-OMe): at chromodomains of CBX7, the Kd is around 0.1 µM.
